The values that follow come from patent US20120258956A1, “USE OF A SPIROLIDE, ANALOGUES AND DERIVATIVES FOR TREATING AND/OR PREVENTING PATHOLOGICAL CONDITIONS LINKED TO THE TAU AND BETA-AMYLOID PROTEINS” (priority 2009, published 2012).

One data set concerns cortical neurones. The data set is described as follows: Alamar Blue cellular viability assay in primary cortical cultures. The settings on record: 72 hours in culture. Format: cell-based, mouse. The source says: (§1) In order to carry out the experiments of the present invention, either an in vitro cortical neuronal model with simultaneous overexpression of tau and β-amyloid, obtained from a model of Alzheimer's disease in triple-transgenic (3×Tg-AD or 3×Tg) mice, obtainable via the detailed procedure in the international patent application WO2003/053136 and provided by the title holders of this application, or an in vitro cortical neuronal model obtained from non-transgenic (No-Tg) mice.
Primary cortical cultures in the embodiment of the invention were obtained from 3×Tg-AD mouse embryos of 15-17 days gestation and the wild cultures were obtained from non 3×Tg control mouse embryos of the same strain. The effect of the compounds used in this invention on cellular viability was estimated by a fluorescence assay using the Alamar Blue viability indicator. To carry out the assay, primary cortical cultures seeded on 96-well plates were used. The neuronal cells were incubated in the culture medium with the spirolide of the present invention at different concentrations dissolved in dimethyl sulfoxide and the effect on neuronal viability was determined at different treatment times in vitro. The maximum concentration of 13-desmethyl spirolide evaluated was 100 nM and the concentration of Alamar blue was 10%. The volume of the reaction used was 200 μl. Fluorescence was measured at wavelengths of 530 nm (excitation) and 590 nm (emission).

The test system of data set [1] is tau phosphorylated on Ser202. The data set is described as follows: Western blot of phosphorylated tau (AT8 antibody) in 3xTg-AD cortical neuronal cultures. Format: cell-based, mouse. To be noted: for levels of tau phosphorylated on Serine 202: day 3 to day 10 in vitro, untreated 3xTg 129.1.
Excerpt: as §1
The administration of 50 nM spirolide is equivalent to approximately 37 μg spirolide per kg of body weight. Intraperitoneal administration of an amount higher than 37 μg per kg body weight to a mouse reduced the levels of these proteins but produced toxic effects in the animal (Santokh et al., 2003. NeuroToxicology, 24: 593-604), however, the oral toxicity of spirolides is 1 mg per kg body weight.
For the determination of the effect of the spirolide compound of the present invention on the expression of tau and beta amyloid, the Western blot techniques were used. The primary neuronal cultures were incubated with the spirolide compound of the present invention added to the culture medium for a specific time. For the concentration of 50 nM, the treatment times were between 7 and 10 days in vitro and for other concentrations (0.1 to 25 nM) between 3 and 10 days in vitro. The cells were then processed following the usual protocols for Western blot. For Western blot studies, protein expression was evaluated using 6E10 anti-β-amyloid primary antibodies at a dilution of 1:500, AT8 anti-Tau (tau phosphorylated on Ser202, dilution 1:1000) and AT100 anti-tau (tau phosphorylated on Thr 212 and Ser214, dilution 1:1000).
For Western blot assays, neuronal cultures treated with the spirolide of the present invention were washed with cold phosphate buffer and lysed in 50 mM Tris-HCl buffer (pH 7.4) containing 150 mM NaCl, 1 mM EDTA, 1% Triton X-100, 2 mM DTT, 2.5 mM PMSF, 40 mg/ml aprotinin, 4 mg/ml leupeptin, 5 mM NaF, 1 mM Na3VO4, 1 mg/ml pepstatin A and 1 mg/ml benzamidine. Total protein concentration was determined by Bradford's method using bovine albumin as standard. Aliquots of cellular lysates containing 20 μg total protein were loaded in loading buffer (50 mM Tris-HCl, 100 mM dithiothreitol, 2% SDS, 20% glycerol, 0.05% bromophenol blue, pH 6.8), the proteins were separated by electrophoresis and transferred to PVDF membranes. The membranes were incubated with the primary antibodies, washed and then incubated with a secondary antibody bound to HRP. Immunoreactivity was detected by chemiluminescence. The same membranes were reincubated with an anti-β-actin primary antibody to carry out data correction for the sample protein content.

For another data set, the system named is β-amyloid. The data set is described as follows: Western blot of intracellular β-amyloid (6E10 antibody) in 3xTg-AD cortical neuronal cultures. Format: cell-based, mouse.
Excerpt: as §1
(§2) For the determination of the effect of the spirolide compound of the present invention on the expression of tau and beta amyloid, the Western blot techniques were used. […] For Western blot studies, protein expression was evaluated using 6E10 anti-β-amyloid primary antibodies at a dilution of 1:500, AT8 anti-Tau (tau phosphorylated on Ser202, dilution 1:1000) and AT100 anti-tau (tau phosphorylated on Thr 212 and Ser214, dilution 1:1000).
(§3) For Western blot assays, neuronal cultures treated with the spirolide of the present invention were washed with cold phosphate buffer and lysed in 50 mM Tris-HCl buffer (pH 7.4) containing 150 mM NaCl, 1 mM EDTA, 1% Triton X-100, 2 mM DTT, 2.5 mM PMSF, 40 mg/ml aprotinin, 4 mg/ml leupeptin, 5 mM NaF, 1 mM Na3VO4, 1 mg/ml pepstatin A and 1 mg/ml benzamidine. Total protein concentration was determined by Bradford's method using bovine albumin as standard. […]

The test system of data set [2] is tau phosphorylated on Thr212 and Ser214. The data set is described as follows: Western blot of phosphorylated tau (AT100 antibody) in 3xTg-AD cortical neuronal cultures. Format: cell-based, mouse. The settings on record: 3xTg cultures, FIG. 3B, p<0.005, n=3.
Excerpt: as §1, §2, §3

The subject of a further data set is total tau. The data set is described as follows: Western blot of total basal tau (Tau46 antibody) in control non-transgenic cortical neurones. To be noted: 100 nM. Format: cell-based, mouse. As to the method:
The effect of spirolide on basal phosphorylation of tau was determined by Western blot techniques. An in vitro cortical neuronal model obtained from non-transgenic mice was used. Neuronal culture and sample processing was carried out in the same way as described in the previous example. The data obtained were corrected for the β-actin content of the samples.

For data set [3] the following is noted: administered intraperitoneally, rat and mouse; cited from earlier work.
For data set [4] the following is noted: oral; cited from earlier work.

As to 13-desmethyl spirolide, the “Viability of cortical neurones” value is listed as 104.3 ± 1.2 % control with cortical neurones (2.5 nM); 104 ± 1.3 % control in the data set on cortical neurones (5 nM); 104.3 ± 1.4 % control in the data set with cortical neurones (10 nM); 104.3 ± 0.7 % control in the data set with cortical neurones (25 nM); 103.4 ± 0.5 % control with cortical neurones (50 nM); 102.1 ± 1.5 % control in the data set on cortical neurones (100 nM). Further, the “hyperphosphorylation of the tau protein” value in data set [1] (0.017 μg per kg body weight (approx. 0.023 nM)) is reported as “continued to be reduced”. Further, the “levels of tau phosphorylated on Serine 202” value is on record as 129.8 ± 1.7 % control in data set [1] (3xTg cultures, 0.1 nM); 61.7 ± 12.4 % control in data set [1] (3xTg cultures, 0.5 nM); 70.3 ± 4.7 % control in data set [1] (3xTg cultures, 10 nM); 89.1 ± 2.2 % control in data set [1] (3xTg cultures, 25 nM). Further, in data set [1] (3xTg cultures, FIG. 2B, p<0.05, n=3), the “tau phosphorylation (AT8, Ser202; Western blot quantification)” value is recorded as “significant reduction”. The β-amyloid protein result in the data set on β-amyloid (0.5 nM) is listed as “reducing β-amyloid protein”. Moreover, the “overexpression of β-amyloid (Western blot quantification, 6E10)” value in the data set on β-amyloid (3xTg cultures, FIG. 1B, p<0.005 vs untreated transgenic cultures, n=3) was “significant reduction”. Besides, the “tau phosphorylation (AT100, Thr212 and Ser214; Western blot quantification)” value in data set [2] is listed as “significant reduction”. The “total basal tau levels in control neurones” value with total tau is given as 139.9 ± 27.3 % control; in the data set on total tau (listed as spirolide), “did not affect”. Also, in data set [3], the “concentration causing toxic effects” value is 37-40 μg/kg body weight. Also, the “toxicity when administered orally” value in data set [4] is recorded as “not toxic”.
